Source: the NIST ThermoML archive (doi:10.1016/j.jct.2008.07.008)
Numbers after ± are expanded uncertainties.

Key:
[1] = refractive index (Na D-line) (dimensionless); settings: 101.33 kPa, Liquid, Standard Abbe refractometry
[2] = refractive index (Na D-line) (dimensionless); xn = mol fraction of the nth substance listed; settings: 101 kPa, Liquid, Standard Abbe refractometry

N#Cc1ccccc1 [benzonitrile]
[1]
Settings	refractive index
277.43 K	1.5321 ± 0.0004
278.33 K	1.5318 ± 0.0004
279.49 K	1.5312 ± 0.0004
280.36 K	1.5307 ± 0.0004
280.38 K	1.5307 ± 0.0004
280.86 K	1.5305 ± 0.0004
281.97 K	1.5299 ± 0.0004
284.13 K	1.5289 ± 0.0004

N#Cc1ccccc1 [benzonitrile] + CCCCCCCC
[2]
Settings	refractive index
280.36 K, x1 = 0.092	1.4104 ± 0.0004
280.36 K, x1 = 0.244	1.4248 ± 0.0004
280.36 K, x1 = 0.344	1.4353 ± 0.0005
280.36 K, x1 = 0.558	1.4613 ± 0.0005
280.36 K, x1 = 0.644	1.4726 ± 0.0005
280.36 K, x1 = 0.762	1.4901 ± 0.0005
280.36 K, x1 = 0.821	1.4996 ± 0.0005
280.36 K, x1 = 0.927	1.5176 ± 0.0005
280.36 K, x1 = 1	1.5307 ± 0.0004
282.93 K, x1 = 0.558	1.4599 ± 0.0005
283.35 K, x1 = 0.344	1.4339 ± 0.0005
283.66 K, x1 = 0.558	1.4597 ± 0.0005
283.67 K, x1 = 0.344	1.4337 ± 0.0005
284.57 K, x1 = 0.344	1.4333 ± 0.0005
284.78 K, x1 = 0.558	1.4591 ± 0.0005
285.65 K, x1 = 0.344	1.4327 ± 0.0005
285.74 K, x1 = 0.558	1.4586 ± 0.0005
286.64 K, x1 = 0.558	1.4583 ± 0.0005
286.73 K, x1 = 0.344	1.4322 ± 0.0005
287.64 K, x1 = 0.558	1.4578 ± 0.0005
287.77 K, x1 = 0.344	1.4318 ± 0.0005
288.61 K, x1 = 0.558	1.4574 ± 0.0005
288.82 K, x1 = 0.344	1.4313 ± 0.0005

CCCCCCCC [octane]
[1]
Settings	refractive index
277.8 K	1.404 ± 0.0004
279.68 K	1.4032 ± 0.0004
280.36 K	1.4028 ± 0.0004
280.51 K	1.4027 ± 0.0004
281.66 K	1.4021 ± 0.0004
282.65 K	1.4017 ± 0.0004
283.88 K	1.4012 ± 0.0004
284.73 K	1.4007 ± 0.0004

CCCCCCCC [octane] + N#Cc1ccccc1
Settings	refractive index
[2], 280.36 K, x2 = 0	1.4028 ± 0.0004
